Active and inactive are the calls of the source. No cut-off for these calls is given here. Residues, ends and D or L forms follow the SMILES beside them. *: point of attachment. Cbz = O=C(OCc1ccccc1)*; CH2F = FC*
Legend:
Mus musculus [1] = assay: Inhibition of necroptosis in mouse middle cerebral artery occlusion induced ischemic injury model assessed as reduction of infarct volume at 2-4 mM, icv after occlusion; format: functional, organism-based
Jurkat = assay: Ratio of compound IC50 to Nec-1 IC50 for human jurkat cells; format: functional
Mus musculus [2] = assay: Inhibition of necroptosis in icv dosed mouse middle cerebral artery occlusion induced ischemic injury model assessed as reduction of infarct volume drug administered 5 mins preocclusion; format: functional, organism-based
Mus musculus [3] = assay: Inhibition of necroptosis in icv dosed mouse middle cerebral artery occlusion induced ischemic injury model assessed as improvement in neurological score drug administration after occlusion; format: functional, organism-based
Mus musculus [4] = assay: Inhibition of necroptosis in icv dosed mouse middle cerebral artery occlusion induced ischemic injury model assessed as induction of LC3-II by Western blot method drug administered 6hrs postocclusion; format: functional, organism-based
Mus musculus [5] = assay: Inhibition of necroptosis in icv dosed mouse middle cerebral artery occlusion induced ischemic injury model assessed as reduction of infarct volume drug administered 6 hrs postocclusion; format: functional, organism-based
Mus musculus [6] = assay: Inhibition of necroptosis in icv dosed mouse middle cerebral artery occlusion induced ischemic injury model assessed as induction of LC3-II after 26 hrs by Western blot method; format: functional, organism-based
Mus musculus [7] = assay: Inhibition of necroptosis in icv dosed mouse middle cerebral artery occlusion induced ischemic injury model assessed as reduction of infarct volume drug administered 2 hrs postocclusion; format: functional, organism-based
Mus musculus [8] = assay: Inhibition of necroptosis in mouse middle cerebral artery occlusion induced ischemic injury model assessed as reduction of infarct volume at 2-4 mM, icv before occlusion; format: functional, organism-based
[9] = Inhibition of death receptor signaling mediated necroptotic cell death in human Jurkat cell deficient in FADD assessed as cell viability after 30 hrs by ATP based viability assay in presence of TNFalpha
Mus musculus [10] = assay: Inhibition of necroptosis in icv dosed mouse middle cerebral artery occlusion induced ischemic injury model assessed as induction of LC3-II after 5 hrs by Western blot method; format: functional, organism-based
Mus musculus [11] = assay: Inhibition of necroptosis in icv dosed mouse middle cerebral artery occlusion induced ischemic injury model assessed as induction of LC3-II by Western blot method drug administered 4 hrs postocclusion; format: functional, organism-based
Mus musculus [12] = assay: Inhibition of necroptosis in icv dosed mouse middle cerebral artery occlusion induced ischemic injury model assessed as improvement in neurological score drug administration before occlusion; format: functional, organism-based
Mus musculus [13] = assay: Inhibition of caspase3 in icv dosed mouse middle cerebral artery occlusion induced ischemic injury model after 3 hrs by Western blot method drug administered before occlusion; format: functional, organism-based
Mus musculus [14] = assay: Inhibition of necroptosis in icv dosed mouse middle cerebral artery occlusion induced ischemic injury model assessed as induction of LC3-II after 8 hrs by Western blot method; format: functional, organism-based
Mus musculus [15] = assay: Inhibition of necroptosis in icv dosed mouse middle cerebral artery occlusion induced ischemic injury model assessed as induction of LC3-II by Western blot method drug administered 8 hrs postocclusion; format: functional, organism-based
Mus musculus [16] = assay: Inhibition of necroptosis in icv dosed mouse middle cerebral artery occlusion induced ischemic injury model assessed as reduction of infarct volume drug administered 4 hrs postocclusion; format: functional, organism-based
Mus musculus [17] = assay: Inhibition of necroptosis in icv dosed mouse middle cerebral artery occlusion induced ischemic injury model assessed as reduction of infarct volume; format: functional, organism-based

CN1C(=O)C(Cc2c[nH]c3c(Cl)cccc23)NC1=S (configuration not stated)
inhibition (Mus musculus [1]): Dose-dependent effect | fold change (FC) (Jurkat): 2.7 | inhibition (Mus musculus [2]): Active | inhibition (Mus musculus [3]): Dose-dependent effect | Activity (Mus musculus [4]): Active | inhibition (Mus musculus [5]): Active | Activity (Mus musculus [6]): Active | inhibition (Mus musculus [7]): Active | inhibition (Mus musculus [8]): Dose-dependent effect | IC50 [9]: 182 nM | Activity (Mus musculus [10]): Active | Activity (Mus musculus [11]): Active | inhibition (Mus musculus [12]): Dose-dependent effect | inhibition (Mus musculus [13]): inactive | Activity (Mus musculus [14]): Active | Activity (Mus musculus [15]): Active

CN1C(=O)NC(Cc2c[nH]c3c(Cl)cccc23)C1=O (configuration not stated)
inhibition (Mus musculus [5]): Active | IC50 [9]: 206 nM | inhibition (Mus musculus [16]): Active

CC(C)[C@H](NC(=O)OCc1ccccc1)C(=O)N[C@@H](C)C(=O)N[C@@H](CC(=O)O)C(=O)CF (Cbz-Val-Ala-Asp-CH2F)
inhibition (Mus musculus [5]): inactive | inhibition (Mus musculus [13]): Active

O=C1NC(=S)NC1Cc1c[nH]c2ccccc12 (configuration not stated)
inhibition (Mus musculus [17]): inactive

— ChEMBL document CHEMBL1255230, “Chemical inhibitor of nonapoptotic cell death with therapeutic potential for ischemic brain injury” (Nat Chem Biol, 2005)
